Test results published in article PMC4821601, “The Interactions of P-Glycoprotein with Antimalarial Drugs, Including Substrate Affinity, Inhibition and Regulation” (PLoS ONE, 2016).
Where two headings read alike, the source gives them in different places.

How the values were obtained:
[1] = parameters: method as in PMID 17337512; settings: monkeys ref 14; cited from earlier work
P-glycoprotein (P-gp) = target: T1, P-glycoprotein (P-gp) (Homo sapiens, UniProt P08183); experiment: Bidirectional transport of rhodamine123 through Caco-2 monolayers co-incubated with antimalarials (P-gp inhibitory properties); assay type: in vitro ADME
T1 construct: In-vitro Caco-2 cell monolayers were used here as a model for potential drug absorption related problems and P-gp mediated transport of drugs; endogenous in cells; host or cells: Caco-2 (human colon carcinoma, ATCC)
T1 sequence (P08183 whole entry): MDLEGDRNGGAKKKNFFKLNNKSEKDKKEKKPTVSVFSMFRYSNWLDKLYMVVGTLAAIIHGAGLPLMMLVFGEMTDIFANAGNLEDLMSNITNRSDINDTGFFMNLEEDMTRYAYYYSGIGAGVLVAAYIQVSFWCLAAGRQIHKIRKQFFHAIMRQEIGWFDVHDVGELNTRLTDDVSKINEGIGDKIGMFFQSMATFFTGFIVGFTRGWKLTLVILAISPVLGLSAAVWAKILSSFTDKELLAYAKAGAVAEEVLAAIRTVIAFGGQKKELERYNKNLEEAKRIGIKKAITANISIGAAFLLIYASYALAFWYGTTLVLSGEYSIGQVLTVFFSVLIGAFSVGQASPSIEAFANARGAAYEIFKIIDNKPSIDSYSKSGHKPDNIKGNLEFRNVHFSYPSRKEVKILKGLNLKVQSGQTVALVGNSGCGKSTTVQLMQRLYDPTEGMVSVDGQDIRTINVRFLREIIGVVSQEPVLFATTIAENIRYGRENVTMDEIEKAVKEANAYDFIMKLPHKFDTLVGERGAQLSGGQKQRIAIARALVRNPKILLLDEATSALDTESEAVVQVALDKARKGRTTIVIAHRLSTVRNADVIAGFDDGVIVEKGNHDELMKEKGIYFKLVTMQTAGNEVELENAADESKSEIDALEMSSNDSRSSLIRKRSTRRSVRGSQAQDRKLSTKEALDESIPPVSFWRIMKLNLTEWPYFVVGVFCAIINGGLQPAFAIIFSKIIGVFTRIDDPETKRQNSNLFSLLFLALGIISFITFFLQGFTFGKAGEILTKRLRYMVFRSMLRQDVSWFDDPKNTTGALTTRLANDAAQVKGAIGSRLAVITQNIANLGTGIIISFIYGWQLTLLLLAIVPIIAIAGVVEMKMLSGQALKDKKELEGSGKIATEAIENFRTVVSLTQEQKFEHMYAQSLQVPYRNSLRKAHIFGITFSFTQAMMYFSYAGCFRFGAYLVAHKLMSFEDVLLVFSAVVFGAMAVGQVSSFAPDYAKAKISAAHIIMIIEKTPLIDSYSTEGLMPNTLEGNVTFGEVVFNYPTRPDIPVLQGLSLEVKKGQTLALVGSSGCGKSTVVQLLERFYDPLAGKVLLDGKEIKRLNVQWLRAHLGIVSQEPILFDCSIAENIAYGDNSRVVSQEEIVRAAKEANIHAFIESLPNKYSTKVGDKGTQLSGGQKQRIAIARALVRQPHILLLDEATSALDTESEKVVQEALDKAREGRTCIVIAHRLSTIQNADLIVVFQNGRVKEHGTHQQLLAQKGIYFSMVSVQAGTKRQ
Protocol: The Caco-2 cells were seeded on 0.6 cm^2 […] Millipore PCF™ filter inserts at the cell density of 65,000 cells/cm^2 as done previously in the lab. Briefly, the cells were grown for 21–24 days to allow full maturation and formation of tight monolayers. The initial experiments were conducted in mid-40s passage cells and repeated in early 80s passage Caco-2 cells. The Trans epithelial electrical resistance (TEER) was measured immediately before and after the experiment using an epithelial voltage/ohm meter and an ENDOHM 12 chamber (World precision instruments, Sarasota, FL). TEER values were measured both before and after the study with readings above 300 Ω.cm^2 considered as acceptable for tight junctions. […] In order to maintain equivalent transport medium (HBSS/HBSS with inhibitor) level both outside and inside the chambers, 300 μL was used as medium in the apical chambers and 600 μL in the basolateral chambers. […] Drugs were co-incubated with MRCP, BCRP and ATP hydrolysis blockers to determine the involvement of other efflux mechanisms. Prior to the experiment, the transport medium, HBSS or HBSS with P-gp inhibitors were pre-incubated with the cells for 30 minutes. Following incubation, inserts were placed in new well plates and donor chamber is replaced with drug or drug with inhibitor and the receiver chamber with blank HBSS or HBSS with inhibitor. Transport medium was collected from the receiver chamber after stirring at time intervals of 30, 60, 90 and 120 minutes and was replaced with the same volume of fresh HBSS, or HBSS with inhibitor, when P-gp inhibitors were used in the study. At the end of the experiment 100 μL of medium was removed from the donor chamber in addition to medium collected from the receiver chamber during the study. The cells were then washed thoroughly in cold (4°C) PBS and cell membranes attached to the inserts were sonicated for 10 minutes in a sonicating water bath and centrifuged at 10,000 g for 10 minutes. Supernatant was frozen at -80°C until assayed. The Papp values of three well plates were determined using methods modified from Artursson’s group as described by Crowe and Lemaire.
CL.vol=Aa/{[Cd0×Vd−[Aa+(Ca×Vs)]−(Ac)×n/nfin]/Vd}
CL.vol = clearance volume (mL), n = time (min), Aa = amount in acceptor compartment at time n (pmols), Cd0 = concentration in donor compartment at time zero (nM), Vd = volume of the donor compartment (mL), Ca = concentration in acceptor compartment at the previous time point (nM), Vs = sample volume of previous time point (mL), Ac = amount of compound associated with the cells (pmol), Nfin = final time point (min). Papp = Apparent permeability (cm/sec) Rate of clearance (mL/min)=CL.vol / n Papp (cm/sec)=Rate of clearance / Surface area (cm^2)
The cleared volume was plotted against time and the slope of the regression line was divided by the surface area to obtain the Papp values. […] Mean Papp for Bas-Ap direction was divided by the Ap-Bas direction to obtain the efflux ratio and values above two were considered as drugs having true efflux transport.

Caco-2 cell monolayers = experiment: Bidirectional transport (Papp, efflux ratio) of antimalarials through Caco-2 cell monolayers; assay type: in vitro ADME, human
Protocol: (§1) The initial experiments were conducted in mid-40s passage cells and repeated in early 80s passage Caco-2 cells. […] In order to maintain equivalent transport medium (HBSS/HBSS with inhibitor) level both outside and inside the chambers, 300 μL was used as medium in the apical chambers and 600 μL in the basolateral chambers. […] Drugs were co-incubated with MRCP, BCRP and ATP hydrolysis blockers to determine the involvement of other efflux mechanisms. Prior to the experiment, the transport medium, HBSS or HBSS with P-gp inhibitors were pre-incubated with the cells for 30 minutes. Following incubation, inserts were placed in new well plates and donor chamber is replaced with drug or drug with inhibitor and the receiver chamber with blank HBSS or HBSS with inhibitor. Transport medium was collected from the receiver chamber after stirring at time intervals of 30, 60, 90 and 120 minutes and was replaced with the same volume of fresh HBSS, or HBSS with inhibitor, when P-gp inhibitors were used in the study. At the end of the experiment 100 μL of medium was removed from the donor chamber in addition to medium collected from the receiver chamber during the study. The cells were then washed thoroughly in cold (4°C) PBS and cell membranes attached to the inserts were sonicated for 10 minutes in a sonicating water bath and centrifuged at 10,000 g for 10 minutes. Supernatant was frozen at -80°C until assayed. […] CL.vol=[…].vol = clearance volume (mL), n = time (min), Aa = amount in acceptor compartment at time n (pmols), Cd0 = concentration in donor compartment at time zero (nM), Vd = volume of the donor compartment (mL), Ca = concentration in acceptor compartment at the previous time point (nM), Vs = sample volume of previous time point (mL), Ac = amount of compound associated with the cells (pmol), Nfin = final time point (min). […] The cleared volume was plotted against time and the slope of the regression line was divided by the surface area to obtain the Papp values. […] The method from Davis and colleagues was adopted with slight modifications. Separations were performed using an Apollo C18 (5 μm, 4.6x150mm) column attached to a matched guard column (5 μm, 4.6x5.5 mm). […] The injection volume was 40 μL and column oven was maintained at 35°C. The analytes were detected at 222 nm and the retention time was 5.6 minutes. Assay developed by Pussard and co-workers were used and slight modifications were done to adjust laboratory conditions. Separation was done using a Prevail C18 (3 μm, 4.6x150mm) column attached to a Direct-connect^TM universal column prefilter. The mobile phase consisted of 20 mM (w/v) KH2PO4 in deionized water at pH 3.0 and acetonitrile (82:18) v/v. […] The injection volume was 40 μL and column oven was maintained at 30°C. The analytes were detected at 343 nm with a retention time of 2.4 minutes. […] Separations were performed using an Apollo C18 (5 μm, 4.6x150mm) column attached to matched guard column (5 μm, 4.6x5.5mm). […] The injection volume was 40 μL and column oven was maintained at 30°C. The analytes were detected at 660 nm with a retention time of 3.8 minutes. A 40 μL sample was spiked with 5 μL 0.5 mM artemisinin internal standard. […] The pipettor was adjusted to the maximum volume (100 μL). […] Pre-treated samples were loaded into the tips by gently aspirating and discarding into the same vial. The process was repeated 10 times in order to increase binding efficiency of drugs to the OMIX 96 C4 matrix. […] The LC-MS method described by […] and co-workers were modified to suit the LC-MS-MS conditions. […] Wexford, Ireland) at 40°C. […] Quantitation was performed in multiple reactions monitoring, MRM mode, using DUIS (ESI^+ and APCI^+) ion sources. […] The optimized mass spectra were acquired with an interface voltage of 4.5 kV, a detector voltage of 1.0 kV, a heat block temperature of 500°C and a desolvation temperature of 160°C.

[2] = as above; assay type: in vitro ADME, human; settings: human; for Papp at 120 min: Caco-2, Caco-2 monolayers
Protocol: as §1

C[C@H]1[C@H](N2CCS(=O)(=O)CC2)O[C@@H]2O[C@@]3(C)CC[C@H]4[C@H](C)CC[C@@H]1[C@@]24OO3 [AM, artemisone]
in-vivo bioavailability [1]: higher in-vivo bioavailability compared to artesunate
P-gp inhibitory properties (P-glycoprotein (P-gp); at 100 μM): did not exhibit P-gp inhibitory properties
P-gp inhibitory properties (P-glycoprotein (P-gp); at test concentrations): did not exhibit P-gp inhibitory properties
Net flow direction (Caco-2 cell monolayers; Conc (μM) + inhibitor (μM): 10): Diffusion (0.25)
Net flow direction (Caco-2 cell monolayers; Conc (μM) + inhibitor (μM): 20): Diffusion (0.69)
drug absorption predicted from Papp (Caco-2 cell monolayers; based on FDA biopharmaceutical classification system): 100%
Papp at 120 min ([2]; drug alone, read-out: Ap-Bas directional Papp, range over concentrations tested): 37 to 60 ×10⁻⁶ cm/s
Papp at 120 min ([2]; drug alone, read-out: Bas-Ap directional Papp, range over concentrations tested): 35 to 47 ×10⁻⁶ cm/s
Papp at 120 min ([2]; read-out: permeability across the gastrointestinal epithelium (class)): > 25 ×10⁻⁶ cm/s
Papp at 120 min ([2]; summary in abstract, methylene blue depending on the direction of transport, read-out: permeability): ~50 ×10⁻⁶ cm/s
efflux ratio at 120 min, 10 µM ([2]; Caco-2, Conc (μM) + inhibitor (μM): 10, Bas-Ap divided by Ap-Bas): 0.8
Papp at 120 min, 10 µM ([2]; Caco-2, Conc (μM) + inhibitor (μM): 10, first-named drug measured, read-out: Papp Ap-Bas): 59.6 ± 4.2 ×10⁻⁶ cm/s
Papp B→A at 120 min, 10 µM ([2]; Caco-2, Conc (μM) + inhibitor (μM): 10, first-named drug measured, read-out: Papp Bas-Ap): 46.9 ± 8.5 ×10⁻⁶ cm/s
efflux ratio at 120 min, 20 µM ([2]; Caco-2, Conc (μM) + inhibitor (μM): 20, Bas-Ap divided by Ap-Bas): 0.9
Papp at 120 min, 20 µM ([2]; Caco-2, Conc (μM) + inhibitor (μM): 20, first-named drug measured, read-out: Papp Ap-Bas): 37 ± 4.7 ×10⁻⁶ cm/s
Papp B→A at 120 min, 20 µM ([2]; Caco-2, Conc (μM) + inhibitor (μM): 20, first-named drug measured, read-out: Papp Bas-Ap): 34.7 ± 2.7 ×10⁻⁶ cm/s
